{"source": "patent US20100092429A1", "about": "“Composition” (Danisco A/S, priority 2006, published 2010)", "key": {"[1]": {"tested_on": "Bifidobacterium lactis BI-04", "assay_type": "cell-based", "conditions": "1 w/v-% carbohydrate, 37° C."}, "[2]": {"tested_on": "Lactobacilli and S. thermophilus", "assay": "Growth on single carbohydrates, summary for Lactobacilli and S. thermophilus", "assay_type": "cell-based", "conditions": "summary in words of Tables 7 and 8"}}, "note": "Read-outs that look alike come from different tables or passages of the source."}
{"smiles": "OC[C@H]1O[C@H](O)[C@H](O)[C@@H](O)[C@@H]1O", "note": "[Glucose, Alpha-D-Glucose]", "values": [{"measurement": "absorbance (OD 600 nm)", "setting": "[1]; Table 3 test, time 0 h", "value": 0.345}, {"measurement": "absorbance (OD 600 nm)", "setting": "[1]; Table 3 test, time 0.5 h", "value": 0.3508}, {"measurement": "absorbance (OD 600 nm)", "setting": "[1]; Table 3 test, time 1 h", "value": 0.3557}, {"measurement": "absorbance (OD 600 nm)", "setting": "[1]; Table 3 test, time 1.5 h", "value": 0.3612}, {"measurement": "absorbance (OD 600 nm)", "setting": "[1]; Table 3 test, time 2 h", "value": 0.366}, {"measurement": "absorbance (OD 600 nm)", "setting": "[1]; Table 3 test, time 2.5 h", "value": 0.3717}, {"measurement": "absorbance (OD 600 nm)", "setting": "[1]; Table 3 test, time 3 h", "value": 0.3794}, {"measurement": "absorbance (OD 600 nm)", "setting": "[1]; Table 3 test, time 3.5 h", "value": 0.3884}, {"measurement": "absorbance (OD 600 nm)", "setting": "[1]; Table 3 test, time 4 h", "value": 0.4001}, {"measurement": "absorbance (OD 600 nm)", "setting": "[1]; Table 3 test, time 4.5 h", "value": 0.4149}, {"measurement": "absorbance (OD 600 nm)", "setting": "[1]; Table 3 test, time 5 h", "value": 0.4363}, {"measurement": "absorbance (OD 600 nm)", "setting": "[1]; Table 3 test, time 5.5 h", "value": 0.4576}, {"measurement": "absorbance (OD 600 nm)", "setting": "[1]; Table 3 test, time 6 h", "value": 0.4843}, {"measurement": "absorbance (OD 600 nm)", "setting": "[1]; Table 3 test, time 6.5 h", "value": 0.5156}, {"measurement": "absorbance (OD 600 nm)", "setting": "[1]; Table 3 test, time 7 h", "value": 0.549}, {"measurement": "absorbance (OD 600 nm)", "setting": "[1]; Table 3 test, time 7.5 h", "value": 0.5855}, {"measurement": "absorbance (OD 600 nm)", "setting": "[1]; Table 3 test, time 8 h", "value": 0.6269}, {"measurement": "absorbance (OD 600 nm)", "setting": "[1]; Table 3 test, time 8.5 h", "value": 0.6688}, {"measurement": "absorbance (OD 600 nm)", "setting": "[1]; Table 3 test, time 9 h", "value": 0.7126}, {"measurement": "absorbance (OD 600 nm)", "setting": "[1]; Table 3 test, time 9.5 h", "value": 0.7528}, {"measurement": "absorbance (OD 600 nm)", "setting": "[1]; Table 3 test, time 10 h", "value": 0.7957}, {"measurement": "absorbance (OD 600 nm)", "setting": "[1]; Table 3 test, time 10.5 h", "value": 0.8301}, {"measurement": "absorbance (OD 600 nm)", "setting": "[1]; Table 3 test, time 11 h", "value": 0.8645}, {"measurement": "absorbance (OD 600 nm)", "setting": "[1]; Table 3 test, time 11.5 h", "value": 0.897}, {"measurement": "absorbance (OD 600 nm)", "setting": "[1]; Table 3 test, time 12 h", "value": 0.927}, {"measurement": "absorbance (OD 600 nm)", "setting": "[1]; Table 3 test, time 12.5 h", "value": 0.9517}, {"measurement": "absorbance (OD 600 nm)", "setting": "[1]; Table 3 test, time 13 h", "value": 0.9725}, {"measurement": "absorbance (OD 600 nm)", "setting": "[1]; Table 3 test, time 13.5 h", "value": 0.9899}, {"measurement": "absorbance (OD 600 nm)", "setting": "[1]; Table 3 test, time 14 h", "value": 1.0031}, {"measurement": "absorbance (OD 600 nm)", "setting": "[1]; Table 3 test, time 14.5 h", "value": 1.0267}, {"measurement": "absorbance (OD 600 nm)", "setting": "[1]; Table 3 test, time 15 h", "value": 1.0406}, {"measurement": "absorbance (OD 600 nm)", "setting": "[1]; Table 3 test, time 15.5 h", "value": 1.05}, {"measurement": "absorbance (OD 600 nm)", "setting": "[1]; Table 3 test, time 16 h", "value": 1.063}, {"measurement": "absorbance (OD 600 nm)", "setting": "[1]; Table 3 test, time 16.5 h", "value": 1.0769}, {"measurement": "absorbance (OD 600 nm)", "setting": "[1]; Table 3 test, time 17 h", "value": 1.0841}, {"measurement": "absorbance (OD 600 nm)", "setting": "[1]; Table 3 test, time 17.5 h", "value": 1.1062}, {"measurement": "absorbance (OD 600 nm)", "setting": "[1]; Table 3 test, time 18 h", "value": 1.1201}, {"measurement": "absorbance (OD 600 nm)", "setting": "[1]; Table 3 test, time 18.5 h", "value": 1.1494}, {"measurement": "absorbance (OD 600 nm)", "setting": "[1]; Table 3 test, time 19 h", "value": 1.1729}, {"measurement": "absorbance (OD 600 nm)", "setting": "[1]; Table 3 test, time 19.5 h", "value": 1.1942}, {"measurement": "absorbance (OD 600 nm)", "setting": "[1]; Table 3 test, time 20 h", "value": 1.2233}, {"measurement": "absorbance (OD 600 nm)", "setting": "[1]; Table 3 test, time 20.5 h", "value": 1.2352}, {"measurement": "absorbance (OD 600 nm)", "setting": "[1]; Table 3 test, time 21 h", "value": 1.27}, {"measurement": "absorbance (OD 600 nm)", "setting": "[1]; Table 3 test, time 21.5 h", "value": 1.2882}, {"measurement": "absorbance (OD 600 nm)", "setting": "[1]; Table 3 test, time 22 h", "value": 1.2935}, {"measurement": "absorbance (OD 600 nm)", "setting": "[1]; Table 3 test, time 22.5 h", "value": 1.312}, {"measurement": "absorbance (OD 600 nm)", "setting": "[1]; Table 3 test, time 23 h", "value": 1.3311}, {"measurement": "absorbance (OD 600 nm)", "setting": "[1]; Table 3 test, time 23.5 h", "value": 1.3389}, {"measurement": "absorbance (OD 600 nm)", "setting": "[1]; Table 3 test, time 24 h", "value": 1.3477}, {"measurement": "absorbance (OD 600 nm)", "setting": "[1]; Table 4 further test, time 0 h", "value": 0.358}, {"measurement": "absorbance (OD 600 nm)", "setting": "[1]; Table 4 further test, time 0.5 h", "value": 0.3615}, {"measurement": "absorbance (OD 600 nm)", "setting": "[1]; Table 4 further test, time 1 h", "value": 0.3671}, {"measurement": "absorbance (OD 600 nm)", "setting": "[1]; Table 4 further test, time 1.5 h", "value": 0.3772}, {"measurement": "absorbance (OD 600 nm)", "setting": "[1]; Table 4 further test, time 2 h", "value": 0.3899}, {"measurement": "absorbance (OD 600 nm)", "setting": "[1]; Table 4 further test, time 2.5 h", "value": 0.407}, {"measurement": "absorbance (OD 600 nm)", "setting": "[1]; Table 4 further test, time 3 h", "value": 0.4301}, {"measurement": "absorbance (OD 600 nm)", "setting": "[1]; Table 4 further test, time 3.5 h", "value": 0.4552}, {"measurement": "absorbance (OD 600 nm)", "setting": "[1]; Table 4 further test, time 4 h", "value": 0.4845}, {"measurement": "absorbance (OD 600 nm)", "setting": "[1]; Table 4 further test, time 4.5 h", "value": 0.5215}, {"measurement": "absorbance (OD 600 nm)", "setting": "[1]; Table 4 further test, time 5 h", "value": 0.5712}, {"measurement": "absorbance (OD 600 nm)", "setting": "[1]; Table 4 further test, time 5.5 h", "value": 0.6208}, {"measurement": "absorbance (OD 600 nm)", "setting": "[1]; Table 4 further test, time 6 h", "value": 0.6769}, {"measurement": "absorbance (OD 600 nm)", "setting": "[1]; Table 4 further test, time 6.5 h", "value": 0.7519}, {"measurement": "absorbance (OD 600 nm)", "setting": "[1]; Table 4 further test, time 7 h", "value": 0.824}, {"measurement": "absorbance (OD 600 nm)", "setting": "[1]; Table 4 further test, time 7.5 h", "value": 0.8944}, {"measurement": "absorbance (OD 600 nm)", "setting": "[1]; Table 4 further test, time 8 h", "value": 0.9606}, {"measurement": "absorbance (OD 600 nm)", "setting": "[1]; Table 4 further test, time 8.5 h", "value": 1.0277}, {"measurement": "absorbance (OD 600 nm)", "setting": "[1]; Table 4 further test, time 9 h", "value": 1.0871}, {"measurement": "absorbance (OD 600 nm)", "setting": "[1]; Table 4 further test, time 9.5 h", "value": 1.1209}, {"measurement": "absorbance (OD 600 nm)", "setting": "[1]; Table 4 further test, time 10 h", "value": 1.1556}, {"measurement": "absorbance (OD 600 nm)", "setting": "[1]; Table 4 further test, time 10.5 h", "value": 1.189}, {"measurement": "absorbance (OD 600 nm)", "setting": "[1]; Table 4 further test, time 11 h", "value": 1.2217}, {"measurement": "absorbance (OD 600 nm)", "setting": "[1]; Table 4 further test, time 11.5 h", "value": 1.2528}, {"measurement": "absorbance (OD 600 nm)", "setting": "[1]; Table 4 further test, time 12 h", "value": 1.2826}, {"measurement": "absorbance (OD 600 nm)", "setting": "[1]; Table 4 further test, time 12.5 h", "value": 1.3101}, {"measurement": "absorbance (OD 600 nm)", "setting": "[1]; Table 4 further test, time 13 h", "value": 1.3368}, {"measurement": "absorbance (OD 600 nm)", "setting": "[1]; Table 4 further test, time 13.5 h", "value": 1.3586}, {"measurement": "absorbance (OD 600 nm)", "setting": "[1]; Table 4 further test, time 14 h", "value": 1.3745}, {"measurement": "absorbance (OD 600 nm)", "setting": "[1]; Table 4 further test, time 14.5 h", "value": 1.388}, {"measurement": "absorbance (OD 600 nm)", "setting": "[1]; Table 4 further test, time 15 h", "value": 1.4068}, {"measurement": "absorbance (OD 600 nm)", "setting": "[1]; Table 4 further test, time 15.5 h", "value": 1.4166}, {"measurement": "absorbance (OD 600 nm)", "setting": "[1]; Table 4 further test, time 16 h", "value": 1.43}, {"measurement": "absorbance (OD 600 nm)", "setting": "[1]; Table 4 further test, time 16.5 h", "value": 1.4441}, {"measurement": "absorbance (OD 600 nm)", "setting": "[1]; Table 4 further test, time 17 h", "value": 1.4486}, {"measurement": "absorbance (OD 600 nm)", "setting": "[1]; Table 4 further test, time 17.5 h", "value": 1.4526}, {"measurement": "absorbance (OD 600 nm)", "setting": "[1]; Table 4 further test, time 18 h", "value": 1.4654}, {"measurement": "absorbance (OD 600 nm)", "setting": "[1]; Table 4 further test, time 18.5 h", "value": 1.4724}, {"measurement": "absorbance (OD 600 nm)", "setting": "[1]; Table 4 further test, time 19 h", "value": 1.472}, {"measurement": "absorbance (OD 600 nm)", "setting": "[1]; Table 4 further test, time 19.5 h", "value": 1.4796}, {"measurement": "absorbance (OD 600 nm)", "setting": "[1]; Table 4 further test, time 20 h", "value": 1.4864}, {"measurement": "absorbance (OD 600 nm)", "setting": "[1]; Table 4 further test, time 20.5 h", "value": 1.491}, {"measurement": "absorbance (OD 600 nm)", "setting": "[1]; Table 4 further test, time 21 h", "value": 1.4946}, {"measurement": "absorbance (OD 600 nm)", "setting": "[1]; Table 4 further test, time 21.5 h", "value": 1.4988}, {"measurement": "absorbance (OD 600 nm)", "setting": "[1]; Table 4 further test, time 22 h", "value": 1.5015}, {"measurement": "absorbance (OD 600 nm)", "setting": "[1]; Table 4 further test, time 22.5 h", "value": 1.5046}, {"measurement": "absorbance (OD 600 nm)", "setting": "[1]; Table 4 further test, time 23 h", "value": 1.5061}, {"measurement": "absorbance (OD 600 nm)", "setting": "[1]; Table 4 further test, time 23.5 h", "value": 1.5092}, {"measurement": "absorbance (OD 600 nm)", "setting": "[1]; Table 4 further test, time 24 h", "value": 1.5092}, {"measurement": "fermentation of the carbohydrate by Lactobacilli and S. thermophilus", "setting": "[2]", "value": "all these bacteria fermented with glucose"}]}
